# Several values for one entry are separate records, joined by “and”; a condition that tells them apart may be missing. Equal values may be shown once. Inconclusive results and toxic doses are left out. Peptide text beside a SMILES is read from it. * marks the point of attachment. Butyryl = CCCC(=O)*; Bn = c1ccc(C*)cc1
# Test system: P388 leukemia ip, CD2F1 mice, survival T/C
# Experiment: NCI In Vivo Anticancer Drug Screen. Data for tumor model P388 Leukemia (intraperitoneal) in CD2F1 (CDF1) mice
# Conditions: endpoint: median survival time, higher = longer survival
# Procedure, shortened: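 Mice carrying the transplanted tumor received test compound or vehicle. Survival was recorded in each group, and the value is the treated-group measurement divided by that of the vehicle-treated control group.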
# [1] = dose: 50.0 mg/kg/injection, schedule: Q01DX005 (ip), vehicle: saline with Tween-80
# [2] = dose: 100.0 mg/kg/injection, schedule: Q01DX005 (ip), vehicle: saline with Tween-80
# [3] = dose: 200.0 mg/kg/injection, schedule: Q01DX005 (ip), vehicle: saline with Tween-80
# [4] = dose: 60.0 mg/kg/injection, schedule: Q01DX005 (ip), vehicle: Klucel (hydroxypropylcellulose) (HPC)
# [5] = dose: 120.0 mg/kg/injection, schedule: Q01DX005 (ip), vehicle: Klucel (hydroxypropylcellulose) (HPC)
# [6] = dose: 25.0 mg/kg/injection, schedule: Q01DX009 (ip), vehicle: saline
# [7] = dose: 50.0 mg/kg/injection, schedule: Q01DX009 (ip), vehicle: saline
# [8] = dose: 50.0 mg/kg/injection, schedule: Q01DX009 (ip), vehicle: saline with Tween-80
# [9] = dose: 100.0 mg/kg/injection, schedule: Q01DX009 (ip), vehicle: saline with Tween-80
# [10] = dose: 200.0 mg/kg/injection, schedule: Q01DX009 (ip), vehicle: saline with Tween-80
# [11] = dose: 100.0 mg/kg/injection, schedule: Q01DX009 (ip), vehicle: saline
# [12] = dose: 100.0 mg/kg/injection, schedule: Q04DX003 (ip), vehicle: saline
# [13] = dose: 200.0 mg/kg/injection, schedule: Q01DX009 (ip), vehicle: saline
# [14] = dose: 200.0 mg/kg/injection, schedule: Q04DX003 (ip), vehicle: saline
# [15] = dose: 400.0 mg/kg/injection, schedule: Q04DX003 (ip), vehicle: saline
# [16] = dose: 50.0 mg/kg/injection, schedule: Q01DX005 (ip), vehicle: Klucel (hydroxypropylcellulose) (HPC)
# [17] = dose: 100.0 mg/kg/injection, schedule: Q01DX005 (ip), vehicle: Klucel (hydroxypropylcellulose) (HPC)
# [18] = dose: 200.0 mg/kg/injection, schedule: Q01DX005 (ip), vehicle: Klucel (hydroxypropylcellulose) (HPC)
# [19] = dose: 60.0 mg/kg/injection, schedule: Q01DX005 (ip), vehicle: saline with Tween-80
# [20] = dose: 120.0 mg/kg/injection, schedule: Q01DX005 (ip), vehicle: saline with Tween-80
# [21] = dose: 240.0 mg/kg/injection, schedule: Q01DX005 (ip), vehicle: saline with Tween-80
# [22] = dose: 12.5 mg/kg/injection, schedule: Q01DX009 (ip), vehicle: saline
smiles,measurement,setting,value
CCCCN(CCCC)CC(N=O)c1cc(-c2ccc(Cl)c(Cl)c2)nc2c(Cl)cc(Cl)cc12 (stereo unspecified),T/C,[1],108 % of control
same,T/C,[2],111 % of control
same,T/C,[3],107 % of control
COC1C(C2CC(=O)NC(=O)C2)OC2OC(C)(C)OC21 (stereo unspecified),T/C,[1],104 % of control
same,T/C,[2],107 % of control
same,T/C,[3],104 % of control
CN1C=C([N+](=O)[O-])C(N2CCOCC2)C1N1CCOCC1 (stereo unspecified),T/C,[4],96 % of control
same,T/C,[5],114 % of control
CCCCCCCCCCCCCCCCCCON,T/C,"dose: 100.0 mg/kg/injection, schedule: Q04DX003 (ip), vehicle: Klucel (hydroxypropylcellulose) (HPC)",97 % of control
same,T/C,"dose: 200.0 mg/kg/injection, schedule: Q04DX003 (ip), vehicle: Klucel (hydroxypropylcellulose) (HPC)",92 % of control
same,T/C,"dose: 400.0 mg/kg/injection, schedule: Q04DX003 (ip), vehicle: Klucel (hydroxypropylcellulose) (HPC)",94 % of control
CCOC(=O)N1C(=O)C=CC1=O,T/C,"dose: 18.75 mg/kg/injection, schedule: Q01DX009 (ip), vehicle: saline with Tween-80",106 % of control
same,T/C,"dose: 37.5 mg/kg/injection, schedule: Q01DX009 (ip), vehicle: saline with Tween-80",104 % of control
same,T/C,"dose: 75.0 mg/kg/injection, schedule: Q01DX009 (ip), vehicle: saline with Tween-80",105 % of control and 91 % of control
same,T/C,"dose: 150.0 mg/kg/injection, schedule: Q01DX009 (ip), vehicle: saline with Tween-80",113 % of control
C1CCN(CCCCN2CCCCC2)CC1,T/C,[6],93 % of control
same,T/C,[7],88 % of control
CCCC(=O)NC(CSCc1ccccc1)C(=O)NC(CCC(=O)OC)C(=O)OC (stereo unspecified) (Butyryl-Cys(Bn)-Glu(OMe)-OMe; configuration not given here),T/C,[8],104 % of control
same,T/C,[9],104 % of control
same,T/C,[10],96 % of control
O=C1CC(c2ccccc2)NN1 (stereo unspecified),T/C,[7],103 % of control
same,T/C,[11],97 % of control
CNC(=O)OCc1c(COC(=O)NC)c2n(c1C)CS(=O)C2 (stereo unspecified),T/C,"dose: 25.0 mg/kg/injection, schedule: Q01DX005 (ip), vehicle: saline with Tween-80",113 % of control
same,T/C,[1],113 % of control
same,T/C,[2],121 % of control and 122 % of control
same,T/C,[3],113 % of control and 115 % of control
C=CCOC(OCC=C)C(OCC=C)OCC=C,T/C,[11],109 % of control
same,T/C,[12],100 % of control
same,T/C,[13],100 % of control
same,T/C,[14],100 % of control
same,T/C,"dose: 400.0 mg/kg/injection, schedule: Q01DX009 (ip), vehicle: saline",122 % of control
same,T/C,[15],100 % of control
CC(C)(C)SC(=S)SCC(=O)c1cc2cc(Br)ccc2o1,T/C,[1],89 % of control
same,T/C,[2],96 % of control
same,T/C,[3],93 % of control
N#CCCNCCC[Si]12OCCN(CCO1)CCO2,T/C,[16],97 % of control
same,T/C,[17],100 % of control
same,T/C,[18],101 % of control and 103 % of control
CC(C)(C)OP(=O)(O)OC(C)(C)C,T/C,"dose: 25.0 mg/kg/injection, schedule: Q01DX009 (ip), vehicle: water",103 % of control
same,T/C,"dose: 50.0 mg/kg/injection, schedule: Q01DX009 (ip), vehicle: water",100 % of control
same,T/C,"dose: 100.0 mg/kg/injection, schedule: Q01DX009 (ip), vehicle: water",107 % of control
same,T/C,"dose: 200.0 mg/kg/injection, schedule: Q01DX009 (ip), vehicle: water",107 % of control
same,T/C,"dose: 400.0 mg/kg/injection, schedule: Q01DX009 (ip), vehicle: water",112 % of control
CC1OS(=O)(=O)CS(=O)(=O)OC1C (stereo unspecified),T/C,[19],101 % of control
same,T/C,[20],101 % of control
CC1=C(C)CC2(CC1)C(=O)C1(CCC(C)=C(C)C1)C2=O (stereo unspecified),T/C,[8],93 % of control
same,T/C,[9],90 % of control
same,T/C,[10],99 % of control
O=C(NCc1ccco1)Nc1ccccc1C(F)(F)F,T/C,[19],94 % of control
same,T/C,[20],99 % of control
same,T/C,[21],90 % of control
Cc1cc2c(cc1C)C(=O)c1cc3c(cc1C2=O)OCO3,T/C,[19],94 % of control
same,T/C,[20],91 % of control
same,T/C,[21],89 % of control
COc1ccccc1N1CCN(CCCNc2cc(=O)n(C)c(=O)n2C)CC1,T/C,"dose: 50.0 mg/kg/injection, schedule: Q01DX009 (ip), vehicle: Klucel (hydroxypropylcellulose) (HPC)",98 % of control
same,T/C,"dose: 100.0 mg/kg/injection, schedule: Q01DX009 (ip), vehicle: Klucel (hydroxypropylcellulose) (HPC)",104 % of control
same,T/C,"dose: 200.0 mg/kg/injection, schedule: Q01DX009 (ip), vehicle: Klucel (hydroxypropylcellulose) (HPC)",108 % of control
CC(=O)OCC(=O)[C@@]1(O)CC[C@H]2[C@@H]3C[C@H](C)C4=CC(=O)CC[C@]4(C)[C@H]3[C@@H](O)C[C@@]21C,T/C,"dose: 100.0 mg/kg/injection, schedule: Q04DX003 (ip), vehicle: saline with Tween-80",112 % of control
same,T/C,"dose: 200.0 mg/kg/injection, schedule: Q04DX003 (ip), vehicle: saline with Tween-80",108 % of control
same,T/C,"dose: 400.0 mg/kg/injection, schedule: Q04DX003 (ip), vehicle: saline with Tween-80",95 % of control
CCOC(=O)[n+]1ccc(-c2cc[n+](C(=O)OCC)cc2)cc1,T/C,[22],88 % of control
same,T/C,[6],91 % of control
C=CCC(NC(=O)c1ccccc1)C(=O)O (stereo unspecified),T/C,[8],100 % of control
same,T/C,[9],98 % of control
same,T/C,[10],95 % of control
CC1(C)CC(OP(=[Se])(OC2CC(C)(C)N(O)C(C)(C)C2)c2ccccc2)CC(C)(C)N1O,T/C,"dose: 12.5 mg/kg/injection, schedule: Q01DX001 (ip), vehicle: Klucel (hydroxypropylcellulose) (HPC)",102 % of control
same,T/C,"dose: 25.0 mg/kg/injection, schedule: Q01DX001 (ip), vehicle: Klucel (hydroxypropylcellulose) (HPC)",102 % of control
same,T/C,"dose: 50.0 mg/kg/injection, schedule: Q01DX001 (ip), vehicle: Klucel (hydroxypropylcellulose) (HPC)",105 % of control
COc1cc2c[n+](C)c3c4cc(OC)c(OC)cc4c(OCc4ccccc4)cc3c2cc1OC,T/C,"dose: 6.25 mg/kg/injection, schedule: Q01DX005 (ip), vehicle: saline with Tween-80",123 % of control and 124 % of control
same,T/C,"dose: 12.5 mg/kg/injection, schedule: Q01DX005 (ip), vehicle: saline with Tween-80",124 % of control
COc1cc2c(c(OC)c1OC)-c1ccc(OC)c(=O)cc1C(NC(=O)COc1ccccc1)CC2 (stereo unspecified),T/C,"dose: 0.16 mg/kg/injection, schedule: Q01DX009 (ip), vehicle: Klucel (hydroxypropylcellulose) (HPC)",120 % of control
same,T/C,"dose: 1.25 mg/kg/injection, schedule: Q01DX009 (ip), vehicle: Klucel (hydroxypropylcellulose) (HPC)",164 % of control and 171 % of control
same,T/C,"dose: 2.5 mg/kg/injection, schedule: Q01DX009 (ip), vehicle: Klucel (hydroxypropylcellulose) (HPC)",104 % of control and 207 % of control
O=C(O)c1ccc(-c2c3ccc(=O)cc-3oc3cc(O)ccc23)cc1,T/C,[4],100 % of control
same,T/C,[5],97 % of control
same,T/C,"dose: 240.0 mg/kg/injection, schedule: Q01DX005 (ip), vehicle: Klucel (hydroxypropylcellulose) (HPC)",100 % of control
Cc1cc(C)c[n+]([O-])c1,T/C,[22],111 % of control
same,T/C,[6],111 % of control
same,T/C,[7],111 % of control
O=[N+]([O-])c1ccc(-c2cn3nc(-c4ccccc4)c(-c4ccccc4)nc3n2)cc1,T/C,"dose: 12.5 mg/kg/injection, schedule: Q01DX005 (ip), vehicle: Klucel (hydroxypropylcellulose) (HPC)",110 % of control
same,T/C,"dose: 25.0 mg/kg/injection, schedule: Q01DX005 (ip), vehicle: Klucel (hydroxypropylcellulose) (HPC)",98 % of control
same,T/C,[16],108 % of control and 93 % of control
Cc1ccc(C)c([N+](=O)[O-])c1C(=O)O,T/C,"dose: 100.0 mg/kg/injection, schedule: Q04DX003 (ip), vehicle: saline + alcohol",98 % of control
same,T/C,"dose: 200.0 mg/kg/injection, schedule: Q04DX003 (ip), vehicle: saline + alcohol",98 % of control
COc1ccccc1/C=C1/C(=O)N(c2ccc([N+](=O)[O-])cc2)N=C1C,T/C,[16],102 % of control
same,T/C,[17],103 % of control
same,T/C,[18],101 % of control
O=c1c2ccccc2c(=O)n2n1CCC2O (stereo unspecified),T/C,[7],108 % of control
same,T/C,[11],101 % of control
same,T/C,[13],101 % of control
Fc1ccccc1C(Nc1ncccn1)Nc1ncccn1,T/C,[8],88 % of control
same,T/C,[7],94 % of control
same,T/C,[9],87 % of control
same,T/C,[11],99 % of control
same,T/C,[10],87 % of control
same,T/C,[13],94 % of control
O=S(=O)(O)CNc1ccc(Br)cc1,T/C,[12],99 % of control
same,T/C,[14],99 % of control
same,T/C,[15],89 % of control
NNC(=O)CNc1ccccc1Br,T/C,[4],97 % of control
same,T/C,[5],98 % of control

# Source: PubChem BioAssay AID330 (DTP/NCI, 2004)
